Reference: ChEMBL document CHEMBL1201862, “PubChem BioAssay data set” (2004)
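Test compounds were applied to cells in 96-well plates for 48 hours at 5 doses. GI50 marks 50% less growth.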 Activity calls are given as the source filed them. No stated cut-off is given here; in the data, active = GI50 up to about 1.1 µM and inactive = higher.

Tests used:
Assay in all cases: inhibition of tumour cell growth, NCI panel, 48 h
[1] = system: NCI-H226
[2] = system: A549
[3] = system: SF-268
[4] = system: Malme-3M
[5] = system: ACHN
[6] = system: SK-MEL-28
[7] = system: M14
[8] = system: HT-29
[9] = system: TK-10
[10] = system: EKVX
[11] = system: SN12C
[12] = system: NCI-H522
[13] = system: A498
[14] = system: SNB-75
[15] = system: MOLT-4
[16] = system: PC-3
[17] = system: HCT-15
[18] = system: OVCAR-5
[19] = system: CAKI-1
[20] = system: HL-60

SMILES	GI50 [1]	GI50 [2]	GI50 [3]	GI50 [4]	GI50 [5]	GI50 [6]	GI50 [7]	GI50 [8]	GI50 [9]	GI50 [10]	GI50 [11]	GI50 [12]	GI50 [13]	GI50 [14]	GI50 [15]	GI50 [16]	GI50 [17]	GI50 [18]	GI50 [19]	GI50 [20]
O=C(N1CCOCC1)C1(c2ccccc2)CCNCC1	> 100 µM (inactive)	> 100 µM (inactive)	> 100 µM (inactive)	> 100 µM (inactive)	> 100 µM (inactive)	> 100 µM (inactive)	> 100 µM (inactive)	> 100 µM (inactive)	> 100 µM (inactive)	> 100 µM (inactive)	> 100 µM (inactive)	> 100 µM (inactive)	> 100 µM (inactive)	> 100 µM (inactive)	> 100 µM (inactive)	> 100 µM (inactive)	> 100 µM	> 100 µM (inactive)	> 100 µM (inactive)	
O=C(O)C1CCCCN1C(=O)Cc1c[nH]c2ccccc12 (stereo not given)	> 100 µM (inactive)	> 100 µM (inactive)	> 100 µM (inactive)	> 100 µM (inactive)	> 100 µM (inactive)	> 100 µM (inactive)	> 100 µM (inactive)	> 100 µM (inactive)	> 100 µM (inactive)	> 100 µM (inactive)	> 100 µM (inactive)	> 100 µM (inactive)		> 100 µM (inactive)	> 100 µM (inactive)	> 100 µM (inactive)	> 100 µM	> 100 µM (inactive)	> 100 µM (inactive)	> 100 µM (inactive)
COc1cc(/C=C/C(=O)OC[C@]23O[C@H]2[C@@H](OC2OC(C)C(O)C(O)C2O)C2C=CO[C@@H](OC4OC(CO)C(O)C(O)C4O)C23)ccc1O (stereo not given in full)	> 100 µM (inactive)	> 100 µM (inactive)	> 100 µM (inactive)	> 100 µM (inactive)	> 100 µM (inactive)	> 100 µM (inactive)	> 100 µM (inactive)	> 100 µM (inactive)	> 100 µM (inactive)	> 100 µM (inactive)	> 100 µM (inactive)	> 100 µM (inactive)		> 100 µM (inactive)	> 100 µM (inactive)	> 100 µM (inactive)	> 100 µM	> 100 µM (inactive)		> 100 µM (inactive)
O=C1Nc2ccccc2Cn2c1cc1oc(-c3ccccc3)cc12		32.4 µM (inactive)	24 µM (inactive)	30.3 µM (inactive)	37.2 µM (inactive)	63.5 µM (inactive)		> 100 µM (inactive)	> 100 µM (inactive)	33.7 µM (inactive)	27.4 µM (inactive)	43.2 µM (inactive)	36.5 µM (inactive)	24.9 µM (inactive)	> 100 µM (inactive)	57.3 µM (inactive)	88.9 µM	62.4 µM (inactive)	30 µM (inactive)	> 100 µM (inactive)
O=C(NCCN1CCCCC1)c1cccc(I)c1	> 100 µM (inactive)	> 100 µM (inactive)	> 100 µM (inactive)		> 100 µM (inactive)	> 100 µM (inactive)	72.9 µM (inactive)	49.7 µM (inactive)	> 100 µM (inactive)	> 100 µM (inactive)	> 100 µM (inactive)		> 100 µM (inactive)	55.2 µM (inactive)	> 100 µM (inactive)	> 100 µM (inactive)	> 100 µM	> 100 µM (inactive)	> 100 µM (inactive)	> 100 µM (inactive)
CC(=O)N/N=C1/CC[C@@]2(C)C(=CC[C@H]3C4CCC(C(C)CCCC(C)C)[C@@]4(C)CCC32)C1(C)C (stereo not given in full)	> 100 µM (inactive)	31.1 µM (inactive)	63 µM (inactive)	> 100 µM (inactive)	62.4 µM (inactive)	> 100 µM (inactive)	48 µM (inactive)	31.5 µM (inactive)	> 100 µM (inactive)	> 100 µM (inactive)	51.4 µM (inactive)	58.9 µM (inactive)		> 100 µM (inactive)	11 µM (inactive)	30.1 µM (inactive)	40.6 µM	> 100 µM (inactive)	> 100 µM (inactive)	42 µM (inactive)
CC(=O)Oc1ccccc1C(=O)Nc1ncc([N+](=O)[O-])s1 [NITAZOXANIDE]	8.83 µM (inactive)	22 µM (inactive)	14.9 µM (inactive)	11.1 µM (inactive)	20.4 µM (inactive)	11.6 µM (inactive)	15.9 µM (inactive)	15.5 µM (inactive)	16.1 µM (inactive)	21 µM (inactive)	19.8 µM (inactive)	2.86 µM (inactive)	56.2 µM (inactive)	10.2 µM (inactive)	> 100 µM (inactive)	9.53 µM (inactive)	19.9 µM	29.9 µM (inactive)	26.5 µM (inactive)	
